Legend:
[1] = UV-Vis spectroscopic characteristics of free HABA and HABA-derivatives in buffer; assay type: physicochemical
Method: (§1) The degree of modification is calculated, after purification from side-products, on the basis of UV absorption at 356 nm in PBS, at 415 nm in basic environment, or at 504 nm after addition of excess of avidin in PBS.
(§2) Interaction of the HABAylated proteins with avidin or with anti-HABA antibodies is verified by following the characteristic shift of the absorption of the HABA chromophore. Table 4 depicts the spectroscopic characteristics in the spectra range of the HABA-derivatives as free molecules (not bound to proteins) upon interaction with avidin or specific affinity purified antibodies.

avidin = target: T1, avidin (Gallus gallus, UniProt P02701); assay: Spectral shift of the HABA chromophore upon interaction with avidin; assay type: binding
T1 construct: purchased STC Laboratories (Winnipeg, Canada)
Method: as §1, §2

[2] = system: affinity purified anti-HABA antibodies; assay: Spectral shift of the HABA chromophore upon interaction with affinity purified anti-HABA antibodies; assay type: binding, rabbit
[3] = +affinity purified anti-HABA in PBS, (1:1)

T1 sequence (P02701 25-152): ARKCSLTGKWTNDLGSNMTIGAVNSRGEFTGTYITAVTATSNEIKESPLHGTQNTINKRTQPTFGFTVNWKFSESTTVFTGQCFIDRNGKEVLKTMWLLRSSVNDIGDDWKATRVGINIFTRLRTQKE

SMILES	ε[cm^−1M^−1] at λmax ([1]; 0.1 M AcOH)	λmax (nm) ([1]; 0.1 M AcOH)	ε[cm^−1M^−1] at λmax (avidin; PBS/AVIDIN)	λmax (nm) (avidin; PBS/AVIDIN)	ε[cm^−1M^−1] at λmax ([2]; PBS/anti-HABA)	λmax (nm) ([2]; PBS/anti-HABA)	ε[cm^−1M^−1] at λmax ([1]; 0.1 M NaOH)	λmax (nm) ([1]; 0.1 M NaOH)	ε[cm^−1M^−1] at λmax ([1]; PBS)	λmax (nm) ([1]; PBS)	ε280 nm ([1]; at 280 nm)	ε[cm^−1M^−1] (avidin; +Avidin in PBS, (20:1))	λmax (nm) (avidin; +Avidin in PBS, (20:1))	ε500 nm of bound HABA (avidin; at 500 nm, HABA bound to nonlabeled avidin or anti-HABA antibodies)	ε[cm^−1M^−1] [2, 3]	λmax (nm) [2, 3] [nm]
O=C(CCc1cc(N=Nc2ccccc2C(=O)O)ccc1O)NCCCCCCNC(=O)ON1C(=O)CCC1=O [Compound 17, 3′-(6-(succinimidyloxycarbonylamino)hexylaminocarbonylethyl)4′-hydroxy-azo-benzene-2-carboxylic acid]	12,200 cm^−1M^−1	356														
NCCCCCCNC(=O)CCc1cc(N=Nc2ccccc2C(=O)O)ccc1O [Compound 16, 3′-(6-aminohexylaminocarbonylethyl)-4′-hydroxy-azobenzene-2-carboxylic acid]	12,500 cm^−1M^−1	356	30,000 cm^−1M^−1	504	50,000 cm^−1M^−1	482	15,000 cm^−1M^−1	420	12,900 cm^−1M^−1	356	3,300					
O=C(O)c1ccccc1/N=N/c1ccc(O)cc1 [Compound 0, 4′-hydroxyazobenzene-2-carboxylic acid, reference compound]									20,500 cm^−1M^−1	350		35,500 cm^−1M^−1	500	about 30,000	50,000 cm^−1M^−1	482
